Format in all cases: cell-based
Holding throughout (details): fibroblast culture medium; H2O2 500 μM 24 hours, then test material (31, 32: 100 μg/ml) 48 hours; ELISA
Background: An ELISA detects its analyte on a solid surface through an enzyme-linked reagent.

For one assay, the system named is PGE2 (Prostaglandin E2). As to the kind of experiment: Test for inhibiting generation of PGE2 in H2O2-stimulated fibroblast (ELISA). The protocol:
(§1) Fibroblast (PromoCell, Germany) was inoculated in a 6-well culturing plate at a concentration of 1×10^5 cells, and cultured in a 5% CO2 incubator at 37° C. for 24 hours. The well was treated with H2O2 500 μM and stimulated for 24 hours, and then were treated with quercetin3-O-[3-O″-(E)-p-coumaroyl][β-D-glucopyranosyl-(1→3)-O-α-L-rhamnopyranosyl-(1→6)-O-β-D-glucopyranoside] (‘New Material 31’) and quercetin3-O-[3-O″-(E)-p-coumaroyl][α-L-rhamnopyranosyl-(1→6)-O-β-D-glucopyranoside]) (‘New Material 32’) at a concentration of 100 μg/ml, respectively, and reacted for 48 hours. After the reaction was finished, the culture medium was collected and the ELISA analysis was performed. Herein, α-bisabolol, which is the material typically used as an anti-inflammatory agent and abirritant, was used as a control. As PGE2, a kit of Assay Design® was used, and as IL-6 and IL-8, a kit of Endogen® was used, and the test was carried out according to the methods prescribed in the manuals of the respective companies. (‘31’ refers to New Material 31, and ‘32’ refers to New Material 32) Inhibition effect={1−(test sample−control)/(H2O2−control)}×100 <Equation 1>

Another assay concerns IL-6 (Interleukin 6). Put plainly: Test for inhibiting generation of IL-6 in H2O2-stimulated fibroblast (ELISA). The method, then: as §1
Another assay deals with IL-8 (Interleukin 8). Put plainly: Test for inhibiting generation of IL-8 in H2O2-stimulated fibroblast (ELISA). The method, then: as §1

For the substance “α-bisabolol [a-bisabolol, reference compound]”, the PGE2 with PGE2 (Prostaglandin E2) was 205 pg/mL. The IL-6 in the assay with IL-6 (Interleukin 6) amounted to 180 pg/mL. In the assay with IL-8 (Interleukin 8), this substance returned an IL-8 of 200 pg/mL.

The values are drawn from patent US11197878B2, “Anti-inflammatory composition including novel quercetin-based compound” (AMOREPACIFIC CORPORATION, priority 2017, dated 2021).
